# Assay results from patent publication US20240252594A1, “COMBINATION THERAPY FOR NEURODEGENERATIVE DISEASES” (ALETA NEUROSCIENCE, LLC, priority 2021, published 2024).
# Assays:
# [1] = test system: patients with rapidly progressive SOD1 ALS; conditions: not statistically significant; cited from earlier work
# SOD(G93A) mice = conditions: treatment from 75 days; cited from earlier work
# [2] = test system: human dopaminergic neurons (iCell DopaNeurons); experiment: MPP+-induced neurotoxicity: neurite outgrowth (neurite length, branch points) on iCell DopaNeurons; type: cell-based
# Text: MPP+(1-methyl-4-phenylpyridinium) is a known neurotoxin which acts by interfering with oxidative phosphorylation in mitochondria by inhibiting complex I, a protein in the membrane of mitochondria in dopaminergic neurons in the substantia nigra.(94) The inhibition of mitochondrial function leads to the depletion of ATP and eventual cell death. MPP+ ultimately causes Parkinsonism in primates by killing certain dopamine-producing neurons in the substantia nigra.
# iCell DOPA neurons are neural floor plate-derived midbrain dopaminergic neurons generated from human induced pluripotent stem cells (iPSCs). Dopaminergic neurons, specifically those located in the floor plate-derived midbrain are implicated in neurological disorders such as Parkinson's disease, MSA and DLBD among others. […] The iCellDopa neurons were supplied from FUJIFILM Cellular Dynamics.
# (§1) Procedure. iCell DOPA neurons were thawed and cultured following the provider's instructions in Brainphys medium+provided supplements+1% N2 supplement (Stemcell Technologies)+penicillin/streptomycin+Laminin. They were plated at 20000 cells per well of a 384 well plate (pre-coated with poly-D-lysine and Laminin) in 70 μL of growth medium. Cells were incubated at 37° ° C./5% CO2 in a humidified cell culture incubator. Half of the culture medium was changed twice a week.
# (§2) MPP+-induced neurotoxicity: 24 hours after neuronal plating, half of the medium was removed and the test compounds were applied with MPP+ treatment, both concentrated at 4×, were added to the wells. For each well, five aliquots were added, corresponding columns A-E in Table 3. In each row, either the compound indicated dissolved in its vehicle noted in Table 2 was added, or only a vehicle was added as indicated. Column E is an indicator of whether MPP+ was added. If not, only the medium was added.
# (§3) For the evaluation of conditions 8, 10,12, 22, 24, Neurite outgrowth was followed for subsequent 48 hours using an Incucyte Zoom platform with one phase contrast image every 4 hours, using a 20× objective. After 48 hours, the medium containing test compounds and MPP+ was removed and replaced by fresh medium containing a fluorescent cytolysis marker (red fluorescence) and a live cell marker (green fluorescence). For the evaluation of conditions 10, 12, 24, 38, 40, 51-53, Neurite outgrowth was followed similarly for subsequent 72 hours after MPP+ was added.
# Assay endpoints and data analysis. Phase contrast images were analyzed at each time point to determine the neurite length and number of branch points per mm^2. Kinetic data was plotted and kinetics were normalized by subtracting the value of the first data point (at time of treatment), allowing to measure changes in neurite outgrowth only from the onset of the treatment, starting at zero. Area Under Curve (AUC) of kinetic data was obtained and used for plotting compound's effects and perform statistical analyzes.
# [3] = test system: human dopaminergic neurons (iCell DopaNeurons); experiment: MPP+-induced neurotoxicity: cytolysis of iCell DopaNeurons; type: cell-based; conditions: for Cytolysis, Mean ± S.D.: with MPP+ 100 μM
# Procedure: Three different measurements were made in the experiments. Neurite length in mm was measured, which is a measure of increase in dendril length of neurons. […] Secondly, neurite branching was measured. […] Thirdly, cytolysis of the cells was measured. […] Experimental conditions were measured relative to the results of healthy cells in the studies.
# as §1, §2, §3
# Data was normalized to control conditions as there is basal cytolysis in the cell culture after thawing.
# [4] = test system: iPSC-derived dopaminergic (DA) neurons harboring triplication of the α-synuclein locus; experiment: α-Synuclein triplication cell line: neurofilament heavy chain signal intensity; type: cell-based, human; conditions: normalized to Hoechst signal; three months treatment; PBA 500 μM, TUDCA 50 μM, EXD 100 nM
# Procedure: We used 12 replicas for each experimental condition and 16 replicas for control (untreated cells). […] Cells were washed three times with warm phosphate buffered saline (PBS) and imaged immediately at 20× magnification on an imageXpress Micro confocal at 37° C. and 5% CO2.
# Following imaging, cells were immediately fixed with 4% paraformaldehyde for 30 minutes at room temperature, washed three times with PBS, permeabilized with 0.2% Triton X-100 for 30 minutes, blocked with Odyssey Blocking Buffer for 60 minutes, and incubated overnight at 4° C. with primary antibodies, neurofilament (1:1000, Synaptic Systems 171 002) and LB509 (1:100, Abcam ab27766). Cells were washed 3× with 0.1% Tween-20 in PBS and incubated with Alexa Fluor Goat Anti-Rabbit 790 (1:1000) and Goat Anti-Mouse 647 (1:1000) for 1 hour at RT, before washing 3× with 0.1% Tween-20 in PBS and imaging with Sapphire Biomolecular Imager. Neurofilament heavy chain signal intensity was normalized to fixed Hoechst signal measured with Spectra Gemini plate reader (ex=350 nm, em=461 nm), using Hoechst 33342 nucleic acid stain from Invitrogen according to the manufacturer's instructions. Neurofilaments (NF) are located mostly in axons and indicate roughly the content of neurites. If neurodegeneration is halted or reversed, NF signal increases because it correlates with the number and/or length of neurites in the well.
# [5] = test system: IL-6 mediated inflammation in microglial cells; experiment: LPS/ATP-induced neuroinflammation in microglia: IL-6 secretion (Luminex); type: cell-based, human
# Text: (§4) In addition to the studies discussed above assessing activity of combinations of drugs on MPP+-induced neurodegeneration toxicity on human dopaminergic neurons as well as on a human iPSC cell line harboring a triplication mutation in alpha-synuclein gene, and measuring neuronal growth, neurite branching and neurofilament heavy chain, we also assessed combinations of drugs in reducing lipopolysaccharide (LPS, from E. coli)-induced neuroinflammation in human microglia cells.
# (§5) Lipopolysaccharides are important outer membrane components of gram-negative bacteria such as E. coli and Salmonella. They are large amphipathic glycoconjugates that typically consist of a lipid domain (hydrophobic) attached to a core oligosaccharide and a distal polysaccharide. LPS binds to Toll-like receptor 4 (TLR4) and activates microglia(98) which in turn increases secretion of pro-inflammatory cytokines such as interleukin-6 (IL-6), tumor necrosis factor-α (TNF-α), and CXCL1/GROα.
# (§6) Microglia cells were obtained from an iCell® Microglia kit, 01279 (Catalogue N^o R1131) from FUJIFILM Cellular Dynamics. We followed the manufacturer's protocol for activation of the microglial cells with LPS/ATP to subsequently measure the effect of the study drugs on pro-inflammatory cytokines IL-6, TNF-α and CXCL1/GROα.
# (§7) All cell culture procedures were performed in aseptic conditions, under a laminar flow hood. Microglia were thawed and cultured following the provider's instructions. The microglia were plated at 50,000 cells per well of a Corning Primaria 96 well plate (Ref N^o 353872) in 100 μL of growth medium. Cells were incubated at 37° C./5% CO2 in a humidified cell culture incubator.
# (§8) Three days after cell plating, the test or reference substances (25 μL of solutions at 5×) were applied 1 hour before LPS and ATP stimulation.
# (§9) One hour later, 12.5 μL of test or reference substances were added again at 2× concentrated followed by 12.5 μL of LPS at 12× concentration. Fifty microliters of ATP were introduced at 4× concentration, 5 h 30 min after incubation with LPS.
# (§10) Six hours after LPS incubation, the supernatant of each well was collected and centrifugated at 1000 g for 10 minutes to remove the cells and debris.
# (§11) Fifty microliters of supernatant from NT and LPS+ATP-treated wells were used to determine cytokine secretion (IL-6, TNF-α, CXCL1/GROα) by Luminex platform according to the provider's instructions. Samples were diluted prior to the assay to fit within the standard range if needed. Three wells were tested per each condition (Table 11). Cytokines levels in the supernatant were expressed in pg/mL. The data was analyzed using a One-Way ANOVA followed by Bonferroni test.
# [6] = test system: TNF-α mediated neuroinflammation in microglial cells; experiment: LPS/ATP-induced neuroinflammation in microglia: TNF-α secretion (Luminex); type: cell-based, human
# Text: as §4, §5, §6, §7, §8, §9, §10, §11
# [7] = test system: CXCL1/GROα mediated neuroinflammation in microglial cells; experiment: LPS/ATP-induced neuroinflammation in microglia: CXCL1/GROα secretion (Luminex); type: cell-based, human
# Text: as §4, §5, §6, §7, §8, §9, §10, §11
# [8] = test system: riluzole-treated patients; conditions: cited from earlier work
# APP/PS1 mice = conditions: 6-month treatment with 0.4% of TUDCA in diet; cited from earlier work
# cortical neurons = conditions: 100 μM for 12 h; cited from earlier work
# MPTP mouse model = conditions: pre-treatment 50 mg/kg for 3 days; cited from earlier work
# R6/2 transgenic mice = conditions: 500 mg/kg; cited from earlier work
# PD patients = conditions: at 6 months; cited from earlier work
# R6/2 HD mice = conditions: 10-day oral treatment, 9-week mice; cited from earlier work
# [9] = LPS (100 ng/mL) + ATP (5 mM), six hours after LPS
# [10] = compared with […] distilled water in presence of LPS and ATP
smiles,measurement,setting,value
"[O-][n+]1cccc(/C(Cl)=N/OC[C@H](O)CN2CCCCC2)c1 [arimoclomol, Arimoclomol]","Survival, hazard ratio",[1],0.77
same,Lifespan,SOD(G93A) mice,significantly increased the lifespan
"C[C@H](CCC(=O)NCCS(=O)(=O)O)[C@H]1CC[C@H]2[C@@H]3[C@@H](O)C[C@@H]4C[C@H](O)CC[C@]4(C)[C@H]3CC[C@]12C [TUDCA, Tauroursodeoxycholic acid]",Increase of neurite length compared with MPP+ alone (control/MPP+),"[2]; AUC, MPP+ 100 μM",43%
same,Increase of number of branch points compared with MPP+ alone (control/MPP+),"[2]; AUC, MPP+ 100 μM",60%
same,"Neurite length, Mean","[2]; Table 7.1, plate 1, with MPP+ 100 μM, 72 hours",1825.9 mm/mm^2
same,"Neurite Branching, Mean ± S.D.","[2]; Table 7.2, plate 1, with MPP+ 100 μM, 72 hours",58836.3 ± 9596.4 per mm^2
same,"Cytolysis, Mean ± S.D.","[3]; Table 9.1, plate 1",70.69 ± 2.02%
same,Reduction of cytolysis (cell death) (in words),[3]; vs Control/MPP+,did not reduce cytolysis with statistical significance
same,"Neurofilament Heavy Chain signal intensity, mean",[4],1.313
same,"IL-6 in supernatant, Mean ± S.D.",[5]; [9],437.81 ± 24.71 pg/mL
same,"IL-6 in supernatant, Replicate 1",[5]; [9],410.97 pg/mL
same,"IL-6 in supernatant, Replicate 2",[5]; [9],442.87 pg/mL
same,"IL-6 in supernatant, Replicate 3",[5]; [9],459.60 pg/mL
same,Decrease of IL-6 concentration,[5]; [10],37%
same,"TNF-α in supernatant, Mean ± S.D.",[6]; [9],28.57 ± 0.58 pg/mL
same,"TNF-α in supernatant, Replicate 1",[6]; [9],29.01 pg/mL
same,"TNF-α in supernatant, Replicate 2",[6]; [9],27.92 pg/mL
same,"TNF-α in supernatant, Replicate 3",[6]; [9],28.79 pg/mL
same,Decrease of TNF-α concentration,[6]; [10],52%
same,"CXCL1/GROα in supernatant, Mean ± S.D.",[7]; [9],424.96 ± 48.95 pg/mL
same,"CXCL1/GROα in supernatant, Replicate 1",[7]; [9],447.19 pg/mL
same,"CXCL1/GROα in supernatant, Replicate 2",[7]; [9],368.84 pg/mL
same,"CXCL1/GROα in supernatant, Replicate 3",[7]; [9],458.86 pg/mL
same,Decrease of GROα concentration,[7]; [10],32%
same,Baseline-adjusted ALSFRS-R at study end vs placebo,[8]; P=0.007,significantly higher
same,Tolerability,"[8]; human, in vivo",well tolerated
same,Proportion of responders,"[8]; placebo 43%, P=0.021",87%
same,Aβ plaque accumulation in the brain,APP/PS1 mice,prevented Aβ plaque accumulation in the brain
same,Aβ peptide-associated apoptosis,cortical neurons,significantly decrease Aβ peptide-associated apoptosis
same,Neurodegeneration of nigral dopaminergic neurons caused by MPTP,MPTP mouse model,significantly reduced neurodegeneration of the nigral dopaminergic neurons
same,Neuroprotection,R6/2 transgenic mice,neuroprotective effects
"Cc1c(O)c(=O)ccn1C [DFP, Deferiprone]",Protective effect on neurite length and branching (in words),[2]; MPP+ 100 μM,substantially inferior to condition 40
same,"Neurite length - Baseline-corrected AUC (0-72 h), Mean","[2]; Table 6.1, plate 2, with MPP+ 100 μM",874.5 mm/mm^2
same,"Number of branch points per mm^2 - Baseline-corrected AUC (0-72 h), Mean","[2]; Table 6.2, plate 2, with MPP+ 100 μM",24282.5 per mm^2
same,"Neurite length, Mean ± S.D.","[2]; Table 8.1, plate 2, with MPP+ 100 μM, 72 hours",1303.0 ± 378.7 mm/mm^2
same,"Neurite Branching, Mean ± S.D.","[2]; Table 8.2, plate 2, with MPP+ 100 μM, 72 hours",51711.3 ± 15178.4 per mm^2
same,"Cytolysis, Mean ± S.D.","[3]; Table 9.2, plate 2",71.91 ± 1.28%
same,"UPDRS for motor skills, early start group",PD patients,21.6±8
same,Motor endurance,R6/2 HD mice,improved motor endurance
